From ChEMBL document CHEMBL1201862, “PubChem BioAssay data set” (2004)
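Cells were grown in 96-well plates and exposed to each compound for 48 hours at five concentrations; endpoints were interpolated linearly between bracketing concentrations, or set to the highest concentration if not reached. Here, GI50 denotes the concentration required for 50% inhibition of growth.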 Calls of active or inactive are those of the source. Rule as the data show it: active = GI50 up to about 1.1 µM and inactive = higher.

Experiments:
Experiment in all cases: DTP human tumour cell line panel, 48 h
[1] = test system: CCRF-CEM
[2] = test system: LOX IMVI
[3] = test system: RXF 393
[4] = test system: SNB-19
[5] = test system: HOP-62
[6] = test system: U-251
[7] = test system: 786-0
[8] = test system: UO-31
[9] = test system: SF-539
[10] = test system: A498
[11] = test system: NCI-H226
[12] = test system: SR
[13] = test system: UACC-257
[14] = test system: NCI-H460
[15] = test system: HCC 2998
[16] = test system: SN12C
[17] = test system: COLO 205
[18] = test system: MCF7
[19] = test system: NCI/ADR-RES
[20] = test system: Hs-578T

With `CS(=O)(=O)ON1C(=O)c2ccc(N)cc2C1=O` the GI50 [1] was 16 µM (inactive), the GI50 [2] was > 72.6 µM (inactive) and the GI50 [3] was > 40.9 µM (inactive). For the same molecule, the GI50 [4] was > 100 µM (inactive), the GI50 [5] was > 55.5 µM (inactive) and the GI50 [6] was > 100 µM (inactive). For the same molecule, the GI50 [7] was > 100 µM (inactive), the GI50 [8] was > 100 µM (inactive) and the GI50 [9] was > 72.9 µM (inactive). For the same molecule, the GI50 [10] was > 100 µM (inactive), the GI50 [11] was > 100 µM (inactive) and the GI50 [12] was 30 µM (inactive). The GI50 [13] was > 31.6 µM (inactive), the GI50 [14] was > 100 µM (inactive) and the GI50 [15] was > 100 µM (inactive). For the same molecule, the GI50 [16] was > 100 µM (inactive) and the GI50 [17] was 49.5 µM (inactive).

`c1cc(-c2cn3ccsc3n2)ccn1` was tested, and the GI50 [1] was > 41.8 µM (inactive), the GI50 [2] was > 61 µM (inactive) and the GI50 [4] was > 100 µM (inactive). The GI50 [5] was > 100 µM (inactive), the GI50 [6] was > 100 µM (inactive) and the GI50 [7] was 38.4 µM (inactive). The GI50 [8] was > 100 µM (inactive), the GI50 [9] was > 100 µM (inactive) and the GI50 [10] was > 100 µM (inactive). The GI50 [11] was > 100 µM (inactive), the GI50 [12] was 65.9 µM (inactive) and the GI50 [13] was > 100 µM (inactive). For the same molecule, the GI50 [14] was 99.3 µM (inactive), the GI50 [15] was > 100 µM (inactive) and the GI50 [16] was > 100 µM (inactive). The GI50 [17] was > 61.9 µM (inactive).

With `C=C(OC1C(C)=C2C(C1OC(=O)CCCCCCC)C(C)(OC(C)=O)CC(OC(=O)CCC)C1(O)C2OC(=O)C1(C)O)/C(C)=C/C` (stereo unspecified) the GI50 [1] was 0.0141 µM (active), the GI50 [18] was 0.0125 µM (active) and the GI50 [2] was 0.0125 µM (active). The GI50 [3] was 0.0125 µM (active), the GI50 [4] was 0.0422 µM (active) and the GI50 [6] was 0.0125 µM (active). The GI50 [7] was < 0.0001 µM (active), the GI50 [8] was 0.115 µM (active) and the GI50 [9] was 0.0125 µM (active). The GI50 [10] was 0.0125 µM (active), the GI50 [11] was 0.0641 µM (active) and the GI50 [12] was 0.000145 µM (active). The GI50 [19] was 0.478 µM (active), the GI50 [13] was 0.0125 µM (active) and the GI50 [14] was 0.0125 µM (active). The GI50 [15] was 0.0125 µM (active) and the GI50 [16] was 0.0125 µM (active).

With `CCOc1ccc(/C=C2/C(=O)N/C(=N\C(C)=O)N2C)cc1` the GI50 [18] was 62.8 µM (inactive), the GI50 [2] was > 100 µM (inactive) and the GI50 [3] was > 100 µM (inactive). The GI50 [4] was > 100 µM (inactive), the GI50 [5] was 96.6 µM (inactive) and the GI50 [6] was > 100 µM (inactive). For the same molecule, the GI50 [7] was > 100 µM (inactive), the GI50 [8] was > 100 µM (inactive) and the GI50 [9] was > 100 µM (inactive). The GI50 [10] was > 100 µM (inactive), the GI50 [11] was > 100 µM (inactive) and the GI50 [19] was > 100 µM (inactive). The GI50 [13] was > 100 µM (inactive), the GI50 [14] was 67.5 µM (inactive) and the GI50 [15] was > 100 µM (inactive). The GI50 [16] was > 100 µM (inactive) and the GI50 [17] was > 100 µM (inactive).

In the case of `O=C(O)c1ccccc1/C=C1\Cc2cc3c(cc2C1=O)CCC3`, the GI50 [1] is reported as 18.8 µM (inactive), the GI50 [18] is reported as 20.7 µM (inactive) and the GI50 [2] is reported as 14.9 µM (inactive). For the same molecule, the GI50 [3] was 21.3 µM (inactive), the GI50 [4] was 26.7 µM (inactive) and the GI50 [5] was 25.3 µM (inactive). The GI50 [6] was 30.1 µM (inactive), the GI50 [7] was 29 µM (inactive) and the GI50 [8] was 33.9 µM (inactive). The GI50 [9] was 29.1 µM (inactive), the GI50 [10] was 30.8 µM (inactive) and the GI50 [11] was 24 µM (inactive). The GI50 [12] was 4.72 µM (inactive), the GI50 [19] was 17.3 µM (inactive) and the GI50 [13] was 26.5 µM (inactive). The GI50 [14] was 24.2 µM (inactive), the GI50 [15] was 27.6 µM (inactive) and the GI50 [16] was 20.4 µM (inactive). The GI50 [17] was 21.9 µM (inactive).

`N=C(N)C1=C(O)NC(=O)N(C2CCCCC2)C1` was tested, and the GI50 [1] was > 100 µM (inactive), the GI50 [2] was > 100 µM (inactive) and the GI50 [3] was > 100 µM (inactive). The GI50 [4] was > 100 µM (inactive), the GI50 [5] was > 100 µM (inactive) and the GI50 [6] was > 100 µM (inactive). For the same molecule, the GI50 [7] was > 100 µM (inactive), the GI50 [8] was > 100 µM (inactive) and the GI50 [9] was > 100 µM (inactive). The GI50 [10] was > 100 µM (inactive), the GI50 [11] was > 100 µM (inactive) and the GI50 [12] was > 100 µM (inactive). The GI50 [13] was > 100 µM (inactive), the GI50 [14] was > 100 µM (inactive) and the GI50 [15] was > 100 µM (inactive). For the same molecule, the GI50 [16] was > 100 µM (inactive) and the GI50 [17] was > 100 µM (inactive).

`COc1cc(CC2C(=O)OCC2[C@@H](OC(C)=O)c2ccc3c(c2)OCO3)c(Br)c(OC)c1OC` (stereo partly specified) was tested, and the GI50 [1] was 44.7 µM (inactive), the GI50 [2] was > 100 µM (inactive) and the GI50 [3] was 51.3 µM (inactive). The GI50 [4] was > 100 µM (inactive), the GI50 [5] was > 100 µM (inactive) and the GI50 [7] was > 100 µM (inactive). For the same molecule, the GI50 [8] was 53.3 µM (inactive), the GI50 [9] was > 100 µM (inactive) and the GI50 [12] was 29.4 µM (inactive). The GI50 [13] was 69.5 µM (inactive), the GI50 [14] was 48.3 µM (inactive) and the GI50 [15] was 98.4 µM (inactive). For the same molecule, the GI50 [16] was > 100 µM (inactive) and the GI50 [17] was 36.8 µM (inactive).

In the case of `COc1ccc(C2c3cc4c(cc3OC(NNS(=O)(=O)c3ccc(C)cc3)C2C)OCO4)cc1` (stereo unspecified), the GI50 [20] is reported as 27.7 µM (inactive), the GI50 [1] is reported as 11.1 µM (inactive) and the GI50 [18] is reported as 41.1 µM (inactive). For the same molecule, the GI50 [2] was 79.8 µM (inactive), the GI50 [3] was 38.6 µM (inactive) and the GI50 [4] was > 100 µM (inactive). The GI50 [5] was > 100 µM (inactive), the GI50 [6] was 83.4 µM (inactive) and the GI50 [7] was 50.1 µM (inactive). The GI50 [8] was 31.2 µM (inactive), the GI50 [9] was > 100 µM (inactive) and the GI50 [10] was 78.5 µM (inactive). For the same molecule, the GI50 [11] was > 100 µM (inactive), the GI50 [12] was 9.12 µM (inactive) and the GI50 [13] was 52.6 µM (inactive). The GI50 [14] was 41 µM (inactive), the GI50 [15] was > 100 µM (inactive) and the GI50 [16] was > 100 µM (inactive). For the same molecule, the GI50 [17] was 36.3 µM (inactive).
